According to patent US8916526B2, “Flavanone derivative” (National University Corporation Okayama University, priority 2009, dated 2014):
In brackets after ≈: the same amount, converted by molar mass.

Tests used:
[1] = test system: Pseodomonas aeruginosa PAOI; test: Antibacterial activity (MIC) against Gram-negative strains, microdilution; format: cell-based; settings: MIC after 24 h, read-out: MIC (Gram-nagative) PAO1
Procedure, shortened: (§1)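 CLSI broth microdilution in Mueller-Hinton broth with 0.85% NaCl, inoculum about 10^5 […]. Incubated 35° C for 24 hours; MIC taken as the minimum inhibitory concentration, measured three times.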

Escherichia coli K-12 = test: as above; format: cell-based; settings: K12, MIC after 24 h, read-out: MIC (Gram-nagative) K-12
Procedure, shortened: as §1

[2] = biological target: T1, Escherichia coli Topoisomerase IV (Escherichia coli, UniProt P0AFI2+P20083); test: Topoisomerase IV inhibition (decatenation kit), Exp. Ex. 2-3; format: biochemical; settings: decatenation of kDNA, 37° C., 30 minutes; read-out: IC50 (E. coli topoisomerase IV inhibitions)
T1 construct: purchased John Innes Enterprises
Procedure, shortened: (§2)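 Decatenation of 200 ng kinetoplast DNA by 1 unit enzyme, 30 min at 37 °C. S. aureus: 50 mM Tris-HCl pH 7.5, 350 mM potassium glutamate, 1.5 mM ATP; E. coli: 50 mM HEPES-KOH pH 7.6, 100 mM potassium glutamate, 1 mM ATP. Products resolved on 1.0% agarose in TAE.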

[3] = biological target: T2, Staphylococcus aureus Topoisomerase IV (Staphylococcus aureus, UniProt P0C1S7+P0C1U9); test: as above; format: biochemical
T2 construct: purchased John Innes Enterprises
Procedure, shortened: as §2

[4] = test system: Vancomycin-resistant enterococci NCTC 12201; test: In vitro infectivity assay (MIC), Exp. Ex. 2-1; format: cell-based; settings: Enterococcus, NCTC 12201 / VRE; Gram-positive; microdilution, MIC after 24 h; read-out: MIC VRE NCTC 12201
Procedure, shortened: (§3)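 Activity is expressed as MIC under CLSI broth dilution, using a starting inoculum near 10^5 CUF/[…] in Mueller-Hinton medium plus 0.85% NaCl; plates sit at 35° C for 24 hours, three measurements.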

[5] = test system: Vancomycin intermediate-resistant Staphylococcus aureus Mu50; test: In vitro infectivity assay (MIC), Exp. Ex. 2-1; format: cell-based; settings: Staphylococcus aureus, VISA; Gram-positive; microdilution, MIC after 24 h; read-out: MIC VISA Mu50
Procedure, shortened: as §3

[6] = test system: Vancomycin-resistant enterococci FN-1; test: In vitro infectivity assay (MIC), Exp. Ex. 2-1; format: cell-based; settings: Enterococcus, VRE; Gram-positive; microdilution, MIC after 24 h; read-out: MIC VRE FN-1
Procedure, shortened: as §3

[7] = test system: Methicillin-resistant S. aureus COL; test: In vitro infectivity assay (MIC), Exp. Ex. 2-1; format: cell-based, Staphylococcus aureus; settings: Staphylococcus aureus, MRSA; Gram-positive; microdilution, MIC after 24 h
[8] = test system: Methicillin-resistant S. aureus N315; test: In vitro infectivity assay (MIC), Exp. Ex. 2-1; format: cell-based, Staphylococcus aureus; settings: Staphylococcus aureus, MRSA; Gram-positive; microdilution, MIC after 24 h; read-out: MIC MRSA N315
Procedure, shortened: as §3

[9] = test system: Methicillin sensitive S. aureus 209P; test: In vitro infectivity assay (MIC), Exp. Ex. 2-1; format: cell-based, Staphylococcus aureus; settings: Staphylococcus aureus, 209P / MSSA; Gram-positive; microdilution, MIC after 24 h; read-out: MIC MSSA 209P
Procedure, shortened: as §3

[10] = test system: Methicillin-resistant S. aureus OM481; test: In vitro infectivity assay (MIC), Exp. Ex. 2-1; format: cell-based, Staphylococcus aureus; settings: Staphylococcus aureus, MRSA; Gram-positive; microdilution, MIC after 24 h; read-out: MIC MRSA OM481
Procedure, shortened: as §3

[11] = test system: Methicillin-resistant S. aureus OM584; test: In vitro infectivity assay (MIC), Exp. Ex. 2-1; format: cell-based, Staphylococcus aureus; settings: Staphylococcus aureus, MRSA; Gram-positive; microdilution, MIC after 24 h; read-out: MIC MRSA OM584
Procedure, shortened: as §3

[12] = test system: Streptococcus pneumoniae R6; test: In vitro infectivity assay (MIC), Exp. Ex. 2-1; format: cell-based; settings: Streptococcus pneumoniae, R6; Gram-positive; microdilution, MIC after 24 h; read-out: MIC S. Pneumoniae R6
E. coli DNA gyrase = biological target: T3, E. coli DNA gyrase (Escherichia coli, UniProt P0AES4+P0AES6); test: DNA gyrase inhibition (supercoiling kit), Exp. Ex. 2-2; format: biochemical
T3 construct: purchased John Innes Enterprises #K0001
Procedure, shortened: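 IC50 derived from gel electrophoresis separating supercoiled from relaxed DNA. Reactions ran 30 minutes at 37° C with 1 U gyrase, […] relaxed pBR322, 1 mM ATP and 4 mM MgCl2 in Tris-HCl buffer (pH 7.5), then stopped with EDTA-containing solution.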

MSSA FDA 209P = test: In vitro infectivity assay (MIC), broth dilution, Exp. Ex. 1-1; format: cell-based, Staphylococcus aureus; settings: Staphylococcus aureus; MSSA FDA 209P; Mueller-Hinton broth, 35° C., 24 hours; read-out: MIC MSS 209P
Procedure: (§4) The antibacterial activities were measured based on broth dilution techniques of international standards (Clinical Laboratory Standards Institute: CLSI). The activities were shown by minimum inhibitory concentrations (MICs) determined by inoculating the above-mentioned strains at a concentration of about 10^5 […] into Mueller-Hinton broth (manufactured by Difco) containing 0.85% NaCl in 96-well microplates and incubating the plates at 35° C. for 24 hours. Measurement was carried out three times.
(§5) The antibacterial activities of the compounds of the present invention against various strains such as methicillin-resistant Staphylococcus aureus (MRSA), vancomycin intermediate-resistant Staphylococcus aureus (VISA), methicillin-sensitive Staphylococcus aureus (MSSA), and vancomycin-resistant enterococci (VRE) were examined. Of the bacteria used in MIC measurement in this test example, clinical bacteria of MRSA (OM481 strain and OM584 strain) were supplied from Okayama University Hospital (Japan). An MRSA strain N315, a vancomycin intermediate-resistant Staphylococcus aureus (VISA) strain Mu50, and a methicillin-sensitive Staphylococcus aureus (MSSA) strain FDA 209P were used as controls. Vancomycin-resistant enterococcus (VRE) strains NCTC 12201 and FN-1 were supplied from the National Institute of Infectious Disease (Japan).

VISA Mu50 = test: as above; format: cell-based, Staphylococcus aureus; settings: Staphylococcus aureus; VISA Mu50; Mueller-Hinton broth, 35° C., 24 hours; read-out: MIC VISA Mu50
Procedure: as §4, §5

MRSA OM58 = test: as above; format: cell-based, Staphylococcus aureus; settings: Staphylococcus aureus; MRSA OM58; Mueller-Hinton broth, 35° C., 24 hours; read-out: MIC MRSA OM58
Procedure: as §4, §5

MRSA N315 = test: as above; format: cell-based, Staphylococcus aureus; settings: Staphylococcus aureus; MRSA N315; Mueller-Hinton broth, 35° C., 24 hours; read-out: MIC MRSA N315
Procedure: as §4, §5

MRSA OM481 = test: as above; format: cell-based, Staphylococcus aureus; settings: Staphylococcus aureus; MRSA OM481; Mueller-Hinton broth, 35° C., 24 hours; read-out: MIC MRSA OM481
Procedure: as §4, §5

[13] = biological target: T4, DNA gyrase of Escherichia coli (Escherichia coli, UniProt P0AES4+P0AES6); test: DNA gyrase inhibition (supercoiling assay kit), Exp. Ex. 1-2; format: biochemical; settings: E. coli DNA gyrase supercoiling, relaxed pBR322, 37° C., 30 minutes; read-out: Gyrase inhibitory activity IC50 (converted)
T4 construct: purchased John Innes Enterprises #K0001
Procedure: As a kit for measurement of DNA gyrase of Escherichia coli, a product purchased from John Innes Enterprises (Gyrase Supercoiling assay kit #K0001) was used. Relaxed DNA was modified with gyrase into supercoiled DNA, and reaction products were separated by electrophoresis depending on the sizes of the molecular weights to examine anti-gyrase effects (IC50). One unit (1 U) of DNA gyrase and […] of relaxed pBR322 DNA were added to […] of the reaction solution, and the mixture was allowed to react at 37° C. for 30 minutes in the presence of 35 mM Tris-HCl (pH 7.5), 24 mM KCl, 4 mM MgCl2, 2 mM DTT, 1.8 mM spermidine, 1 mM ATP, 6.5% (w/v) glycerol, and 0.1 mg/ml BSA. The reactions were stopped using […] of a reaction stop solution (40% sucrose, 100 mM Tris-HCl (pH 7.5), 1 mM EDTA, 0.5 mg/ml bromophenol blue).

VRE NCTC12201 = test: In vitro infectivity assay (MIC), broth dilution, Exp. Ex. 1-1; format: cell-based, enterococci; settings: Enterococcus; VRE NCTC12201; Mueller-Hinton broth, 35° C., 24 hours; read-out: MIC VRE NCTC12201
Procedure: as §4, §5

VRE FN-1 = test: as above; format: cell-based, enterococci; settings: Enterococcus; VRE FN-1; Mueller-Hinton broth, 35° C., 24 hours; read-out: MIC VRE FN-1
Procedure: as §4, §5

T4 sequence (P0AES4 whole entry, one chain of several): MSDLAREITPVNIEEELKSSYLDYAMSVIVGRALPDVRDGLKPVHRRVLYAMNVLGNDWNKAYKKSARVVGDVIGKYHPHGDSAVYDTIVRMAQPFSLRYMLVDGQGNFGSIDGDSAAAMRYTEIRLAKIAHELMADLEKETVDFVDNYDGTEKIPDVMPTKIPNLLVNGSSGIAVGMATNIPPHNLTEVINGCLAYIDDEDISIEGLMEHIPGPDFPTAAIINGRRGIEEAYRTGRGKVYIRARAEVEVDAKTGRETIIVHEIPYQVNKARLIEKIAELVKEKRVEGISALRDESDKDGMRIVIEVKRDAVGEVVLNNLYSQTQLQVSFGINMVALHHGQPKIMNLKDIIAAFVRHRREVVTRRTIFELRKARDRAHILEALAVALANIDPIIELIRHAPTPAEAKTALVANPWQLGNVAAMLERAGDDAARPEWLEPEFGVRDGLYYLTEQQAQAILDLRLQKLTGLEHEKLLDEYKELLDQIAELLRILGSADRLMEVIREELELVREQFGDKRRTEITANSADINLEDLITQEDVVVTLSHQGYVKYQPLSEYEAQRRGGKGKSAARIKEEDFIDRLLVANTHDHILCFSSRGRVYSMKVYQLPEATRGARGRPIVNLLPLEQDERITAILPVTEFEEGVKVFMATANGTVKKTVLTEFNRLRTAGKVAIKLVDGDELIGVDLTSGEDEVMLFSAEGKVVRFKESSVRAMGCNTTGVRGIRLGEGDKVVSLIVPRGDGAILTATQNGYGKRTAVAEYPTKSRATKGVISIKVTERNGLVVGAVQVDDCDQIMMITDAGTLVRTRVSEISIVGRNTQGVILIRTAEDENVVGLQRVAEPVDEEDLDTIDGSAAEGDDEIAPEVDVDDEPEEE
T1 sequence (P20083 whole entry): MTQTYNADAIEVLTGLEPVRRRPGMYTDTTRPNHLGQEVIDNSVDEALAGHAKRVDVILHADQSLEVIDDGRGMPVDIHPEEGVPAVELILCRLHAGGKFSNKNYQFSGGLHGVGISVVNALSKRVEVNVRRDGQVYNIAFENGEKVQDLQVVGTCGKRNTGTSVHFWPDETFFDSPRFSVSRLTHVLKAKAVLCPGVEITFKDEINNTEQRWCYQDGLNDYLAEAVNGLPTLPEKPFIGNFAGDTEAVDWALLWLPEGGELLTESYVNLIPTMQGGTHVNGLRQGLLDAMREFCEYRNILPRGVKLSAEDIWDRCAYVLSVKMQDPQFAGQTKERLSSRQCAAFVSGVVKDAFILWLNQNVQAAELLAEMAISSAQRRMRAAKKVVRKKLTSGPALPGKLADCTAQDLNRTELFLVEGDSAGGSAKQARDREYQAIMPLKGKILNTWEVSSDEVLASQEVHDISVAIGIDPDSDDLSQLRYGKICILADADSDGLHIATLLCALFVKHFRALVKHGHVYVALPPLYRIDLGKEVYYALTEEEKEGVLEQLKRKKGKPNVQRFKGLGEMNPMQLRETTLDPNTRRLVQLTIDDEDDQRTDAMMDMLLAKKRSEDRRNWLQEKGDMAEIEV
T1 sequence (P0AFI2 whole entry): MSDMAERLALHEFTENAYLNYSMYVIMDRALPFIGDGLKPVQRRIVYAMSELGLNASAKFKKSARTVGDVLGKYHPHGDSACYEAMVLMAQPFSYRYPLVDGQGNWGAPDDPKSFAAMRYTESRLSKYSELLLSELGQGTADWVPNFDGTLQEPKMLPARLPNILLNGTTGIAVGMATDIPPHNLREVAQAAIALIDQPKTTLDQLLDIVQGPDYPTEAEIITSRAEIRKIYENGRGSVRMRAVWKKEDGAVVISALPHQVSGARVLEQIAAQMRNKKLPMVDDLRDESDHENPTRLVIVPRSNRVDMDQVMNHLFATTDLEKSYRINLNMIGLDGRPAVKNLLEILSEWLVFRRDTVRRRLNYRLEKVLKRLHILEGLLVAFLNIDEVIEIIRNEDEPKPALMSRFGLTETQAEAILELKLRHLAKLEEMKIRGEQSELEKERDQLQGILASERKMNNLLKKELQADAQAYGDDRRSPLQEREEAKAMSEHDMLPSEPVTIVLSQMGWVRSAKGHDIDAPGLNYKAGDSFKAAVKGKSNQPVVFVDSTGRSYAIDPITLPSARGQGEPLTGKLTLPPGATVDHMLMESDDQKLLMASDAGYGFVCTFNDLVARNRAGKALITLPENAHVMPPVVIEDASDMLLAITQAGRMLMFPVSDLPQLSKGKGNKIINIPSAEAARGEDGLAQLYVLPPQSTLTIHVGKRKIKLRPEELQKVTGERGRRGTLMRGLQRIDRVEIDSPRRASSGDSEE
T3 sequence (P0AES4 whole entry, one chain of several): as the sequence (P0AES4 whole entry, one chain of several) above
T2 sequence (P0C1U9 whole entry): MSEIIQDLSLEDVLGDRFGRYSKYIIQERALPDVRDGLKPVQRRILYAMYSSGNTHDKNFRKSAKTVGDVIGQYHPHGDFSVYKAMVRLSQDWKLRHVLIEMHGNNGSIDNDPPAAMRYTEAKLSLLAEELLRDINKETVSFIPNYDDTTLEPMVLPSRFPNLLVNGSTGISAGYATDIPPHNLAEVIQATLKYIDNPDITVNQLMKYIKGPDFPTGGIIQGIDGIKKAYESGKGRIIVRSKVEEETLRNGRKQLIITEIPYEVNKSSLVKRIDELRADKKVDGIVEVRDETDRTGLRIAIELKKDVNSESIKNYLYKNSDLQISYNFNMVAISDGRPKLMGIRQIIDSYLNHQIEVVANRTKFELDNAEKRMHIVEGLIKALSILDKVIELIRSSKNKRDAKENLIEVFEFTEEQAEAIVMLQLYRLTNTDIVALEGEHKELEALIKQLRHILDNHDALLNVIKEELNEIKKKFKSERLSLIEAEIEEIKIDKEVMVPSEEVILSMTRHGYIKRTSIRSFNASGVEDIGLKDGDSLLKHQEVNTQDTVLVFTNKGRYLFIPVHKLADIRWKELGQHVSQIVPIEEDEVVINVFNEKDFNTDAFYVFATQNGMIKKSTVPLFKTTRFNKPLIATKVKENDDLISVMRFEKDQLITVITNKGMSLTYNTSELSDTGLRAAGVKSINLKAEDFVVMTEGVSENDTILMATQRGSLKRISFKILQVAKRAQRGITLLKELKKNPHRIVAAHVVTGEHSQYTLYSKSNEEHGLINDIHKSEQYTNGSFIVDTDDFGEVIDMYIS
T2 sequence (P0C1S7 whole entry): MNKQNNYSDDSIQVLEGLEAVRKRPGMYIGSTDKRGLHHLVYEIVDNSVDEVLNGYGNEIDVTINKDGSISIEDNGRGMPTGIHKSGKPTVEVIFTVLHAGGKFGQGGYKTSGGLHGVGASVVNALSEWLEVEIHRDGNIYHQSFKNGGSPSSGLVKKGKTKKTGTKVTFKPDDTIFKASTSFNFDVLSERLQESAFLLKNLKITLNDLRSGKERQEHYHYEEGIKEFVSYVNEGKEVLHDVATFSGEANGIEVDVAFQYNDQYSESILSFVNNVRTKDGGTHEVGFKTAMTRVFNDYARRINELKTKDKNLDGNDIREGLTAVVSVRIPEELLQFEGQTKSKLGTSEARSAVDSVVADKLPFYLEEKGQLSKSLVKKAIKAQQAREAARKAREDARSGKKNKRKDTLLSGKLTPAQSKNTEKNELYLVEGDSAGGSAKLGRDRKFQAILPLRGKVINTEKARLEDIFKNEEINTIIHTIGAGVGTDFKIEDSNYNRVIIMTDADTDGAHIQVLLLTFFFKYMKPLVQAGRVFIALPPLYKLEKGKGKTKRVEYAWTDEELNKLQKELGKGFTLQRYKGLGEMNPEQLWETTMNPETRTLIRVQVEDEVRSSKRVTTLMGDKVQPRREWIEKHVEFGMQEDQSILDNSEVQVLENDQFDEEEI

Compound | MIC [1] | MIC (Escherichia coli K-12) | IC50 [2] | IC50 [3] | MIC [4] | MIC [5] | MIC [6] | MIC [7] | MIC [8] | MIC [9] | MIC [10] | melting point | MIC (MSSA FDA 209P) | MIC (VISA Mu50) | MIC (MRSA OM58) | MIC (MRSA N315) | MIC (MRSA OM481) | IC50 [13] | MIC (VRE NCTC12201) | MIC (VRE FN-1) | other results
Cc1ccc(CC(=O)OC[C@H]2O[C@@H](Oc3c(-c4ccc(O)c(O)c4)oc4cc(O)cc(O)c4c3=O)[C@H](OC(=O)Cc3ccc(C)cc3)[C@@H](O)[C@H]2O)cc1 [Compound 14d, 2-(3′,4′-Dihydroxyphenyl)-5,7-dihydroxy-3-β-D-[2″,6″-di-O-(4-methylphenylacetyl)]galactosyl-4H-chromen-4-one] | > 128 mg/L | > 128 mg/L | 8.52 µM | 2.69 µM | 4 mg/L (≈ 5.49 µM) | 4 mg/L (≈ 5.49 µM) | 8 mg/L (≈ 11 µM) | 16 mg/L (≈ 22 µM) | 8 mg/L (≈ 11 µM) | 4 mg/L (≈ 5.49 µM) | 2 mg/L (≈ 2.74 µM) | 125 to 127 °C | – | – | – | – | – | – | – | – | MIC [11]: 2 mg/L (≈ 2.74 µM); MIC [12]: 2 mg/L (≈ 2.74 µM); IC50 (E. coli DNA gyrase): 2.21 µM
O=C(CCc1ccc(O)cc1)OC[C@H]1O[C@@H](Oc2c(-c3ccc(O)c(O)c3)oc3cc(O)cc(O)c3c2=O)[C@H](OC(=O)CCc2ccc(O)cc2)[C@@H](O)[C@H]1O [Compound 14f, 2-(3′,4′-Dihydroxyphenyl)-5,7-dihydroxy-3-β-D-{2″,6″-di-O-[3′″-(4-hydroxyphenylpropanoyl)]}galactosyl-4H-chromen-4-one] | > 128 mg/L | > 128 mg/L | 8.86 µM | 1.59 µM | 4 mg/L (≈ 5.26 µM) | 2 mg/L (≈ 2.63 µM) | 4 mg/L (≈ 5.26 µM) | 4 mg/L (≈ 5.26 µM) | 2 mg/L (≈ 2.63 µM) | 2 mg/L (≈ 2.63 µM) | 1 mg/L (≈ 1.31 µM) | 149 to 150 °C | – | – | – | – | – | – | – | – | MIC [11]: 1 mg/L (≈ 1.31 µM); MIC [12]: 4 mg/L (≈ 5.26 µM); IC50 (E. coli DNA gyrase): 2.39 µM
CCOc1ccc(C(=O)O[C@H]2[C@H](Oc3c(-c4ccc(O)c(O)c4)oc4cc(O)cc(O)c4c3=O)O[C@H](CO)[C@@H](O)[C@@H]2OC(=O)c2ccc(OCC)cc2)cc1 [Compound 15e, 2-(3′,4′-Dihydroxy)-5,7-dihydroxy-3-β-D-(2″,3″-di-p-ethoxybenzoyloxy)glucosyl-4H-chromen-4-one] | – | – | – | – | – | – | – | – | – | – | – | 122 to 123 °C | 8 mg/L (≈ 10.5 µM) | 16 mg/L (≈ 21 µM) | 32 mg/L (≈ 42.1 µM) | 8 mg/L (≈ 10.5 µM) | 32 mg/L (≈ 42.1 µM) | 10.8 µM | 16 mg/L (≈ 21 µM) | 16 mg/L (≈ 21 µM) | –
CCCc1ccc(C(=O)O[C@H]2[C@H](Oc3c(-c4ccc(O)c(O)c4)oc4cc(O)cc(O)c4c3=O)O[C@H](CO)[C@@H](O)[C@@H]2OC(=O)c2ccc(CCC)cc2)cc1 [Compound 15f, 2-(3′,4′-Dihydroxy)-5,7-dihydroxy-3-β-D-(2″,3″-di-p-propylbenzoyloxy)glucosyl-4H-chromen-4-one] | – | – | – | – | – | – | – | – | – | – | – | 152 to 153 °C | 8 mg/L (≈ 10.6 µM) | 16 mg/L (≈ 21.1 µM) | 32 mg/L (≈ 42.3 µM) | 8 mg/L (≈ 10.6 µM) | 32 mg/L (≈ 42.3 µM) | 13.2 µM | 8 mg/L (≈ 10.6 µM) | 8 mg/L (≈ 10.6 µM) | –
CC(=O)OC[C@H]1O[C@@H](Oc2c(-c3ccc(O)c(O)c3)oc3cc(O)cc(O)c3c2=O)[C@H](OC(C)=O)[C@@H](OC(C)=O)[C@@H]1OC(C)=O [Compound 16, 2-(3′4′-Dihydroxy)-5,7-dihydroxy-3-β-D-tetraacetylglucosyl-4H-chromen-4-one] | – | – | – | – | – | – | – | – | – | – | – | 109 to 110 °C | 128 mg/L (≈ 202 µM) | > 128 mg/L | 128 mg/L (≈ 202 µM) | 128 mg/L (≈ 202 µM) | 128 mg/L (≈ 202 µM) | > 19 µM | > 128 mg/L | > 128 mg/L | –
